Laboratory results published in PubChem BioAssay (NCI).
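Results reflect a 48-hour exposure of cells in 96-well plates to compound at five concentrations. The concentration for full growth arrest is given as TGI.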

Tests used:
Assay in all cases: NCI tumour cell line growth inhibition, 48 h
[1] = test system: SR leukemia
[2] = test system: OVCAR-4 ovarian
[3] = test system: UACC-257 melanoma
[4] = test system: HOP-62 NSCLC
[5] = test system: MDA-MB-435
[6] = test system: RXF 393 renal
[7] = test system: NCI/ADR-RES ovarian
[8] = test system: A498 renal
[9] = test system: SNB-75 CNS
[10] = test system: KM12 colon
[11] = test system: SN12C renal
[12] = test system: MOLT-4 leukemia
[13] = test system: COLO 205 colon
[14] = test system: CAKI-1 renal
[15] = test system: SF-539 CNS
[16] = test system: HCC-2998 colon
[17] = test system: M14 melanoma
[18] = test system: HOP-92 NSCLC
[19] = test system: 786-0 renal
[20] = test system: MALME-3M melanoma
[21] = test system: HT29 colon
[22] = test system: A549 NSCLC
[23] = test system: UACC-62 melanoma
[24] = test system: BT-549 breast
[25] = test system: U251 CNS
[26] = test system: SNB-19 CNS
[27] = test system: HCT-15 colon
[28] = test system: MDA-N
[29] = test system: NCI-H23 lung
[30] = test system: NCI-H460 lung
[31] = test system: UO-31 renal
[32] = test system: SK-OV-3 ovarian
[33] = test system: LOX IMVI melanoma
[34] = test system: SK-MEL-5 melanoma
[35] = test system: HCT-116 colon
[36] = test system: SK-MEL-2 melanoma
[37] = test system: OVCAR-5 ovarian
[38] = test system: MDA-MB-231 breast
[39] = test system: ACHN renal
[40] = test system: SW-620 colon
[41] = test system: NCI-H226 lung
[42] = test system: NCI-H522 lung
[43] = test system: PC-3 prostate
[44] = test system: MCF7 breast
[45] = test system: SF-295 CNS
[46] = test system: HS 578T breast
[47] = test system: TK-10 renal
[48] = test system: CCRF-CEM leukemia
[49] = test system: OVCAR-3 ovarian
[50] = test system: IGROV1 ovarian
[51] = test system: T-47D breast
[52] = test system: EKVX NSCLC
[53] = test system: OVCAR-8 ovarian
[54] = test system: SK-MEL-28 melanoma
[55] = test system: HL-60(TB) leukemia
[56] = test system: SF-268 CNS
[57] = test system: DU-145 prostate
[58] = test system: K-562 leukemia
[59] = test system: RPMI-8226 leukemia

Work on `NC1CC(=O)c2csc(Br)c21` (stereo not drawn) yielded a TGI [1] of 47.5 µM, a TGI [2] of 30.5 µM and a TGI [3] of 34.8 µM. It also gave a TGI [4] greater than 72 µM, a TGI [5] of 32.9 µM and a TGI [6] of 36 µM. The TGI [7] was 44.4 µM, the TGI [8] was greater than 57.9 µM and the TGI [9] was greater than 79.5 µM. For the same compound, the TGI [10] was greater than 57.9 µM, the TGI [11] was greater than 44.3 µM and the TGI [12] was 46.8 µM. The TGI [13] was greater than 51.4 µM, the TGI [14] was 27.5 µM and the TGI [15] was 8.24 µM. The TGI [16] was 34.6 µM, the TGI [17] was greater than 53.6 µM and the TGI [18] was 24.5 µM. For the same compound, the TGI [19] was greater than 50.7 µM, the TGI [20] was 33.9 µM and the TGI [21] was 43.8 µM. The TGI [22] was greater than 100 µM, the TGI [23] was 33.2 µM and the TGI [24] was 26.5 µM. The TGI [25] was greater than 60 µM, the TGI [26] was greater than 80.3 µM and the TGI [27] was 41.2 µM. For the same compound, the TGI [28] was 28.4 µM, the TGI [29] was 30.8 µM and the TGI [30] was greater than 67.4 µM. It also gave a TGI [31] of 30.7 µM, a TGI [32] greater than 100 µM and a TGI [33] of 29 µM. It also gave a TGI [34] greater than 59.2 µM, a TGI [35] greater than 44.2 µM and a TGI [36] of 31.3 µM. For the same compound, the TGI [37] was 29.3 µM, the TGI [38] was greater than 53.6 µM and the TGI [39] was 32.2 µM. It also gave a TGI [40] of 24.8 µM, a TGI [41] of 69.2 µM and a TGI [42] of 8.21 µM. For the same compound, the TGI [43] was 28.4 µM, the TGI [44] was 68 µM and the TGI [45] was greater than 100 µM. The TGI [46] was 46.5 µM, the TGI [47] was 27.6 µM and the TGI [48] was greater than 100 µM. It also gave a TGI [49] of 30.7 µM, a TGI [50] of 25.4 µM and a TGI [51] greater than 59.3 µM. The TGI [52] was 33.1 µM, the TGI [53] was 33.6 µM and the TGI [54] was 37.9 µM. It also gave a TGI [55] of 61.3 µM, a TGI [56] of 44.1 µM and a TGI [57] greater than 52.1 µM. It also gave a TGI [58] greater than 82.4 µM and a TGI [59] of 34.2 µM.

`CC(=O)OCC1OC(n2c(N)c(C#N)c(-c3ccccc3)c(C#N)c2=S)C(OC(C)=O)C(OC(C)=O)C1OC(C)=O` (stereo not drawn) was tested, and the TGI [1] was greater than 100 µM, the TGI [2] was greater than 100 µM and the TGI [3] was greater than 100 µM. The TGI [4] was 45 µM, the TGI [5] was greater than 100 µM and the TGI [6] was greater than 70.5 µM. For the same compound, the TGI [7] was greater than 100 µM, the TGI [8] was greater than 100 µM and the TGI [9] was 30 µM. For the same compound, the TGI [10] was greater than 100 µM, the TGI [11] was greater than 100 µM and the TGI [12] was greater than 100 µM. The TGI [13] was greater than 100 µM, the TGI [14] was greater than 100 µM and the TGI [15] was greater than 100 µM. For the same compound, the TGI [16] was greater than 100 µM, the TGI [17] was greater than 100 µM and the TGI [18] was 50.9 µM. It also gave a TGI [19] greater than 86.4 µM, a TGI [20] greater than 100 µM and a TGI [21] greater than 100 µM. The TGI [22] was greater than 100 µM, the TGI [23] was greater than 100 µM and the TGI [24] was greater than 100 µM. It also gave a TGI [25] of 59.1 µM, a TGI [26] greater than 75.4 µM and a TGI [27] greater than 100 µM. For the same compound, the TGI [28] was greater than 100 µM, the TGI [29] was greater than 100 µM and the TGI [30] was greater than 100 µM. For the same compound, the TGI [31] was greater than 100 µM, the TGI [32] was greater than 100 µM and the TGI [33] was greater than 100 µM. For the same compound, the TGI [34] was greater than 100 µM, the TGI [35] was greater than 100 µM and the TGI [36] was greater than 100 µM. The TGI [37] was greater than 100 µM, the TGI [38] was greater than 100 µM and the TGI [39] was greater than 100 µM. It also gave a TGI [40] greater than 100 µM, a TGI [41] greater than 100 µM and a TGI [42] greater than 100 µM. The TGI [43] was greater than 100 µM, the TGI [44] was greater than 100 µM and the TGI [45] was greater than 93 µM. It also gave a TGI [46] of 54.1 µM, a TGI [47] greater than 100 µM and a TGI [48] greater than 100 µM. It also gave a TGI [49] greater than 100 µM, a TGI [50] greater than 100 µM and a TGI [51] greater than 100 µM. For the same compound, the TGI [52] was greater than 100 µM, the TGI [53] was greater than 100 µM and the TGI [54] was greater than 100 µM. It also gave a TGI [55] greater than 100 µM, a TGI [56] greater than 77.5 µM and a TGI [57] greater than 100 µM. For the same compound, the TGI [58] was greater than 100 µM and the TGI [59] was greater than 100 µM.
